Structures are written as SMILES.

A short description of the test: Cytotoxicity against human HepG2(2.2.15) cells. Type of test: functional, cell-based.
As to `COc1cccc2c1cc([N+](=O)[O-])c1c(C(=O)O[C@H]3/C=C(\C=O)CC/C=C(\C)CC/C=C(\C)C3)cc3c(c12)OCO3`, the IC50 came out at 4.83 µM. `COc1cccc2c1cc([N+](=O)[O-])c1c(C(=O)O[C@H]3/C=C(/C=O)CC/C=C(\C)CC/C=C(\C)C3)cc3c(c12)OCO3` gave a half-maximal inhibitory concentration (IC50) of 5.44 µM. `C/C1=C\CC/C(C=O)=C/[C@H](OC(=O)c2cc3c(c4c2c([N+](=O)[O-])cc2ccccc24)OCO3)C/C(C)=C/CC1` yielded a half-inhibitory concentration (IC50) of 8.23 µM. As for `C/C1=C\CC/C(C=O)=C\[C@H](OC(=O)c2cc3c(c4c2c([N+](=O)[O-])cc2ccccc24)OCO3)C/C(C)=C/CC1`, the figure is 7.53 µM.

The values above are taken from ChEMBL document CHEMBL1158027, “Sesquiterpene esters of aristolochic acid from the root and stem of Aristolochia heterophylla” (J Nat Prod, 1999).
